The nature of series [1]: UV absorption of the compounds (E1/1 at λmax). Format: physicochemical.
Series [2] can be described thus: Photostability: irradiation in a Suntester, concentration decrease of the UV filters. Format: physicochemical.
Source text: The values give the concentration decrease of the UV filters in percentage following irradiation (dose in J/cm^2).
Where [3] appears, read: formulation Example 1, 72 J/cm^2, 765 W/m^2.
Where [4] appears, read: formulation Example 1, 144 J/cm^2, 765 W/m^2.

For the compound `COc1cc2c(cc1OC)C(C)(C)C/C2=C(/C#N)C(=O)C(C)(C)C` [Example 1, 2-(5,6-Dimethoxy-3,3-dimethyl-1-indanylidene)-4,4-dimethyl-3-oxo-pentanonitrile], the λmax in series [1] is 373 nm.

In series [1], `COc1c(C)cc2c(c1C)C(C)(C)C/C2=C(/C#N)C(=O)C(C)(C)C` [Example 2, 2-(5-Methoxy-3,3,4,6-tetramethyl-1-indanylidene)-4,4-dimethyl-3-oxo-pentanonitrile] had a λmax of 340 nm.

As for `Cc1cc2c(cc1C)C(C)(C)C/C2=C(/C#N)C(=O)C(C)(C)C` [Example 3, 2-(3,3,5,6-tetramethyl-1-indanylidene)-4,4-dimethyl-3-oxo-pentanonitrile], the λmax in series [1] turned out to be 342 nm.

As to `Cc1ccc2c(c1)/C(=C(\C#N)C(=O)C(C)(C)C)CC2(C)C` [Example 4, 2-(3,3,6-trimethyl-1-indanylidene)-4,4-dimethyl-3-oxo-pentanonitrile], in series [1], the “E1/1 (specific extinction at λmax)” value is 588/550 and the λmax is given as 335/316.

As for `COc1cc2c(cc1OC(C)=O)/C(=C(\C#N)C(=O)C(C)(C)C)CC2(C)C` [Example 8, 2-(6-Acetoxy-3,3-dimethyl-5-methoxy-1-indanylidene)-4,4-dimethyl-3-oxo-pentanonitrile], in series [1], the “E1/1 (specific extinction at λmax)” value is listed as 420/280 and the λmax was 355/302.

Consider `CCCOC(=O)/C(C#N)=C1\CC(C)(C)c2cc(OC)c(OC)cc21` [Example A1], for which the “concentration decrease of the UV filter following irradiation” value (shortened to “concentration decrease”) came to 22% in series [2] (combination A1 + OMC, formulation Example 12, 72 J/cm^2); 37% in series [2] (combination A1 + OMC, formulation Example 12, 144 J/cm^2); 10% in series [2] (setting [3]); 13% in series [2] (setting [4]).

As for `COC(=O)/C(C#N)=C1\CC(C)(C)c2cc(OC)c(OCC(C)C[Si](C)(O[Si](C)(C)C)O[Si](C)(C)C)cc21` (stereo not shown) [Example A2], the “concentration decrease” value in series [2] (combination A2 + OMC, formulation Example 12, 72 J/cm^2) is 14%; in series [2] (combination A2 + OMC, formulation Example 12, 144 J/cm^2), 26%; in series [2] (setting [3]), 1%; in series [2] (setting [4]), 6%.

In the case of `COc1cc2c(cc1OC)C(C)(C)C/C2=C(/C#N)C(=O)C(C)(C)C` [Example B1], the “concentration decrease” value turned out to be 2% in series [2] (combination B1 + OMC, formulation Example 12, 72 J/cm^2); 3% in series [2] (combination B1 + OMC, formulation Example 12, 144 J/cm^2); 2% in series [2] (setting [3]); 3% in series [2] (setting [4]).
